# Measured values reported in patent US20210087565A1, “ANTISENSE ANTIBIOTICS AND BACTERIAL SECRETION BASED DELIVERY SYSTEM TO ELIMINATE DRUG-RESISTANT BACTERIA” (priority 2018, published 2021).
# “And” between values parts separate entries of the source, which are not always exact repeats. Identical values can stand only once.
# Legend:
# ESBL KPN = assay: Potentiation of antibiotics with PNAs (Bliss Independence); type: cell-based, Klebsiella pneumoniae; conditions: 10 μM PNA + 2 μg/mL tetracycline
# Experimental: (§1) Combinatorial effects were evaluated using the Bliss Independence model where the S parameter defines a deviation from no interaction as is defined as: […]
# (§2) Where ODAB is the OD at saturation time in only antibiotic, OD0 is the OD at saturation in no treatment, ODPNA is the OD at saturation in only antisense-PNA at 10 μM, and ODAB, PNA is the OD at saturation in a combination of antibiotic and antisense-PNA. Saturation time was determined as the time when the no treatment control reached its saturation growth phase. S>0 is a deviation towards synergy and S<0 is a deviation towards antagonism.
# MDR E. coli = assay: PNA growth assay (optical density) on clinical isolate; type: cell-based, Escherichia coli
# Experimental: Bacterial Cell culture: The clinical isolates were obtained from the lab of Nancy Madinger at the University of Colorado Anschutz campus. Clinical isolates were grown in Cation Adjusted Mueller Hinton broth (CAMHB) (Becton, Dickinson and Company 212322) at 37° C. with 225 rpm shaking or on solid CAMHB with 1.5% agar at 37° C. Clinical isolates were maintained as freezer stocks in 90% CAMHB, 10% glycerol at −80° C. Freezer stocks were streaked out onto solid CAMHB and incubated for 16 h to produce single colonies prior to experiments. For each biological replicate, a single colony was picked from solid media and grown for 16 h in liquid CAMHB prior to experiments. Non-clinical isolates, such as E. coli MG1655 (ATCC700926) and Salmonella entorica serovar typhimurium SL1344, were cultured in liquid 2% lysogeny broth (LB) or on 2% LB with 1.5% agar for solid plates. S. typhimurium cultures were supplemented with 30 μg/mL streptomycin and SL1344 strains containing plasmids pFPV (SL1344-mCherry) or pRG1 modified with a lacIq promoter (SL1344-Holin) were supplemented with 100 μg/mL ampicillin. Freezer stocks were stored in 60% LB broth, 40% glycerol at −80° C. Freezer stocks were streaked out onto solid LB and incubated for 16 h to produce single colonies before experiments. For biological replicates, single colonies were started in liquid LB and grown for 16 hours prior to experiments. E. coli MG1655 PNA growth experiments were carried out in M9 media (1×M9 minimal media salts solution (MP Biomedicals), 2.0 mM MgSO4, and 0.1 mM CaCl2 in sterile water) with 0.4% glucose.
# PNA growth assay: Biological replicates were diluted 1:10,000 into treatment condition in 384-well plates and measured for 24 h in a Tecan GENios at 562 nm with a bandwidth of 35 nm. Media absorbance blanks were subtracted from data prior to analysis. Normalized optical density (OD) data is shown normalized to the time point where the “no treatment” growth curves reached saturation phase which varied across biological replicates.
# NDM-1 KPN = assay: Potentiation of antibiotics with PNAs (Bliss Independence); type: cell-based, Klebsiella pneumoniae; conditions: 10 μM PNA + 8 μg/mL meropenem, compared to meropenem monotherapy
# Experimental: as §1, §2
# [1] = tested on: SL1344 infection of MC3T3-E1 osteoblast precursor cells; assay: Salmonella infection of osteoblast precursor cells, T3SS-PNA treatment; type: cell-based, Salmonella enterica serovar typhimurium; conditions: 10 μM, multiplicity of infection of 30, 18 hours
# Experimental: FIG. 11. […] Osteoblast precursor cells were grown for 24 hours on tissue culture treated 96-well plates prior to infection with SL1344 at a multiplicity of infection of 30. (A) The antisense inhibitor α-rpsD was added at 10 μM either without infection (No Treatment), after infection (Naked), or during infection (T3SS Transport). (B) After treatment for 18 hours the infection was imaged in brightfield and GFP channel. GFP expression corresponds to an intracellular infection with red arrows indicating hard to see GFP expression.
# Osteoblast Precursor Cell Culture: MC3T3-E1 osteoblast precursor cells were stored in liquid nitrogen in growth media supplemented with %10 dimethyl sulfoxide (DMSO, Sigma). Osteoblasts were recovered from freezer stocks and cultured in growth media consisting of α-Minimum Essential Media (α-MEM, Gibco) supplemented with 10% Fetal Bovine Serum (FBS, Advanced, Atlanta Biologics), and 50 units/mL Penicillin-Streptomycin (P/S, Fisher Scientific) at 37° C., 5% CO2, and controlled humidity. For biological replicates a freezer stock, at passage 9, was split three ways and each replicate continuously passaged as individual biological replicates at 80% confluency using 0.25% trypsin (HyClone). […]
Substance,growth with combination therapy (in words) (ESBL KPN),S-value (Bliss Independence model) (ESBL KPN; S>0 indicates synergy),monotherapy effect (in words) (MDR E. coli),"growth inhibition (MDR E. coli; 10 μM PNA, optical density vs no treatment at 16 hours)",growth with combination therapy (in words) (NDM-1 KPN),Salmonella infection of osteoblast cells (in words) [1]
"α-lexA: 12-mer antisense PNA cGGAATGAAAGC (SEQ ID NO. 17) targeting lexA, conjugated to (KFF)3K cell penetrating peptide via AEEA-linker (antisense CGGAATGAAAGC; all peptide nucleic acid (PNA); (KFF)3K cell-penetrating peptide attached via AEEA linker)",significant growth inhibition compared to each monotherapy,positive,,,,
"α-rpsD: 12-mer antisense PNA AGAAAATGGCAA (SEQ ID NO. 19) targeting rpsD, conjugated to (KFF)3K cell penetrating peptide via AEEA-linker (all peptide nucleic acid (PNA); (KFF)3K cell-penetrating peptide attached via AEEA linker)",,,effective in killing,98±0.7% and 98%,significantly reduced the growth,eliminates Salmonella infection
